Measured values: patent US8013006B2

system: HCV replicon; assay: microbe, parasite or virus in culture; type: cell-based; conditions: Hepatitis C virus, 48 h, read-out: Replicon IC5Os

| SMILES | IC50 [nM] |
| --- | --- |
| CCOC(=O)Nc1cccc(-c2c(C#N)c3ccc(OC)cc3n2CC)c1 [Compound 294] | < 500 |
| CCn1c(-c2cccc(NC(=O)OCC(C)C)c2)c(C#N)c2ccc(OC)cc21 [Compound 296] | 500 to 2000 |
| CCCOC(=O)Nc1cccc(-c2c(C#N)c3ccc(OC)cc3n2CC)c1 [Compound 297] | 500 to 2000 |
| CCn1c(-c2cccc(NC(=O)OCCOC)c2)c(C#N)c2ccc(OC)cc21 [Compound 298] | 500 to 2000 |
| C=CCOC(=O)Nc1cccc(-c2c(C#N)c3ccc(OC)cc3n2CC)c1 [Compound 299] | 500 to 2000 |
| CCn1c(-c2cccc(NC(=O)OCCCCl)c2)c(C#N)c2ccc(OC)cc21 [Compound 301] | 500 to 2000 |
| CCn1c(-c2cccc(NC(=O)OCCF)c2)c(C#N)c2ccc(OC)cc21 [Compound 302] | 500 to 2000 |
| CCn1c(-c2cccc(NC(=O)OCc3ccccc3)c2)c(C#N)c2ccc(OC)cc21 [Compound 304] | 500 to 2000 |
| CCn1c(-c2cccc(NC(=O)Oc3ccc(Cl)cc3)c2)c(C#N)c2ccc(OC)cc21 [Compound 306] | 500 to 2000 |
| CCn1c(-c2cccc(NC(=O)Oc3ccc(Br)cc3)c2)c(C#N)c2ccc(OC)cc21 [Compound 309] | 500 to 2000 |
| CCn1c(-c2cccc(NC(=O)OC(C)C)c2)c(C#N)c2ccc(OC)cc21 [Compound 310] | 500 to 2000 |
| CCC(C)OC(=O)Nc1cccc(-c2c(C#N)c3ccc(OC)cc3n2CC)c1 (stereo not drawn) [Compound 349] | < 500 |
| C#CCOC(=O)Nc1cccc(-c2c(C#N)c3ccc(OC)cc3n2CC)c1 [Compound 350] | 500 to 2000 |
| C=CC(C)OC(=O)Nc1cccc(-c2c(C#N)c3ccc(OC)cc3n2CC)c1 (stereo not drawn) [Compound 351] | 500 to 2000 |
| CCn1c(-c2cccc(NC(=O)OC)c2)c(C#N)c2ccc(OC)cc21 [Compound 353] | < 500 |
| CCn1c(-c2ccc(NS(C)(=O)=O)cc2)c(C#N)c2ccc(C(F)(F)F)cc21 [Compound 365] | < 500 |
| CCCNC(=O)Nc1cccc(-c2c(C#N)c3ccc(OC)cc3n2CC)c1 [Compound 396] | < 500 |

same assay, conditions: Replicon IC50 values are determined by firefly luciferase signal; bicistronic replicon, 2 days; read-out: Replicon IC5Os

| SMILES | IC50 [nM] |
| --- | --- |
| CCn1c(-c2ccc(S(=O)(=O)N(C)C)cc2)c(C#N)c2ccc(OC)cc21 [Compound 275] | > 2000 |
| CCn1c(-c2ccc(S(=O)(=O)N3CCOCC3)cc2)c(C#N)c2ccc(OC)cc21 [Compound 276] | > 2000 |
| CCn1c(-c2ccc(S(=O)(=O)NC)cc2)c(C#N)c2ccc(OC)cc21 [Compound 277] | > 2000 |
| CCn1c(-c2ccc(S(N)(=O)=O)cc2)c(C#N)c2ccc(OC)cc21 [Compound 278] | > 2000 |
| CCn1c(-c2cc3ccccc3o2)c(C#N)c2ccc(OC)cc21 [Compound 282] | > 2000 |
| CCn1c(-c2ccc(-c3ccccc3)cc2)c(C#N)c2ccc(OC)cc21 [Compound 283] | > 2000 |
| CCn1c(-c2cc3ccccc3s2)c(C#N)c2ccc(OC)cc21 [Compound 286] | 500 to 2000 |
| CCn1c(-c2cccc(NS(=O)(=O)CC)c2)c(C#N)c2ccc(OC)cc21 [Compound 287] | > 2000 |
| CCn1c(-c2cccc(NS(=O)(=O)CCCCl)c2)c(C#N)c2ccc(OC)cc21 [Compound 289] | > 2000 |
| CCn1c(-c2cccc(C(=O)NCCN3CCOCC3)c2)c(C#N)c2ccc(OC)cc21 [Compound 290] | > 2000 |
| CCn1c(-c2cccc(C(N)=O)c2)c(C#N)c2ccc(OC)cc21 [Compound 291] | > 2000 |
| CCNC(=O)c1cccc(-c2c(C#N)c3ccc(OC)cc3n2CC)c1 [Compound 292] | > 2000 |
| CCn1c(-c2cccc(NC(=O)Oc3ccccc3)c2)c(C#N)c2ccc(OC)cc21 [Compound 293] | > 2000 |
| CCCCOC(=O)Nc1cccc(-c2c(C#N)c3ccc(OC)cc3n2CC)c1 [Compound 300] | 500 to 2000 |
| CCn1c(-c2cccc(NC(=O)Oc3ccc(OC)cc3)c2)c(C#N)c2ccc(OC)cc21 [Compound 305] | > 2000 |
| CCn1c(-c2cccc(NC(=O)Oc3ccc(F)cc3)c2)c(C#N)c2ccc(OC)cc21 [Compound 307] | 500 to 2000 |
| CCn1c(-c2ccc(NC(=O)OCC(C)C)cc2)c(C#N)c2ccc(OC)cc21 [Compound 311] | > 2000 |
| CCCOC(=O)Nc1ccc(-c2c(C#N)c3ccc(OC)cc3n2CC)cc1 [Compound 312] | > 2000 |
| CCn1c(-c2ccc(NC(=O)OCCOC)cc2)c(C#N)c2ccc(OC)cc21 [Compound 313] | > 2000 |
| C=CCOC(=O)Nc1ccc(-c2c(C#N)c3ccc(OC)cc3n2CC)cc1 [Compound 314] | > 2000 |
| CCn1c(-c2ccc(NC(=O)OCCCCl)cc2)c(C#N)c2ccc(OC)cc21 [Compound 315] | > 2000 |
| CCn1c(-c2ccc(NC(=O)OC3C[C@H](C)CC[C@H]3C(C)C)cc2)c(C#N)c2ccc(OC)cc21 (stereo partly drawn) [Compound 316] | > 2000 |
| CCn1c(-c2ccc(NC(=O)OCCF)cc2)c(C#N)c2ccc(OC)cc21 [Compound 317] | > 2000 |

| SMILES | IC50 [nM] |
| --- | --- |
| CCn1c(-c2ccc(NC(=O)Oc3ccc(Cl)cc3)cc2)c(C#N)c2ccc(OC)cc21 [Compound 318] | > 2000 |
| CCn1c(-c2ccc(NC(=O)Oc3ccc(F)cc3)cc2)c(C#N)c2ccc(OC)cc21 [Compound 319] | > 2000 |
| CCn1c(-c2ccc(NC(=O)Oc3ccc(C)cc3)cc2)c(C#N)c2ccc(OC)cc21 [Compound 320] | > 2000 |
| CCn1c(-c2cccc(C(=O)NCCCN3CCOCC3)c2)c(C#N)c2ccc(OC)cc21 [Compound 323] | > 2000 |
| CCn1c(-c2cccc(NC(=O)CCl)c2)c(C#N)c2ccc(OC)cc21 [Compound 324] | > 2000 |
| CCn1c(-c2cccc(NC(=O)c3ccccc3)c2)c(C#N)c2ccc(OC)cc21 [Compound 326] | > 2000 |
| CCn1c(-c2cccc(NC(=O)c3ccco3)c2)c(C#N)c2ccc(OC)cc21 [Compound 327] | > 2000 |
| CCn1c(-c2cccc(NC(=O)c3cc(C)on3)c2)c(C#N)c2ccc(OC)cc21 [Compound 328] | > 2000 |
| CCn1c(-c2cccc(NC(C)=O)c2)c(C#N)c2ccc(OC)cc21 [Compound 329] | > 2000 |
| CCn1c(-c2cccc(NC(=O)c3ccc4nonc4c3)c2)c(C#N)c2ccc(OC)cc21 [Compound 330] | > 2000 |
| CCn1c(-c2cccs2)c(C#N)c2ccc(OC)cc21 [Compound 337] | > 2000 |
| CCn1c(-c2cccc3c2oc2ccccc23)c(C#N)c2ccc(OC)cc21 [Compound 338] | > 2000 |
| CCCn1c(-c2ccc(NS(=O)(=O)CC)cc2)cc2ccc(OC)cc21 [Compound 343] | > 2000 |
| CCn1c(-c2cn(Cc3ccccc3)cn2)c(C#N)c2ccc(OC)cc21 [Compound 347] | > 2000 |
| CCn1c(-c2cc[nH]n2)c(C#N)c2ccc(OC)cc21 [Compound 348] | > 2000 |
| C#CCCOC(=O)Nc1cccc(-c2c(C#N)c3ccc(OC)cc3n2CC)c1 [Compound 352] | 500 to 2000 |
| CC#CCOC(=O)Nc1cccc(-c2c(C#N)c3ccc(OC)cc3n2CC)c1 [Compound 354] | 500 to 2000 |
| CCn1c(-c2cccc(NC(=O)OCCl)c2)c(C#N)c2ccc(OC)cc21 [Compound 355] | > 2000 |
| CCn1c(-c2cccc(NC(=O)OCC(C)(C)C)c2)c(C#N)c2ccc(OC)cc21 [Compound 356] | > 2000 |
| CCC(C)OC(=O)Nc1ccc(-c2c(C#N)c3ccc(OC)cc3n2CC)cc1 (stereo not drawn) [Compound 357] | > 2000 |
| C#CCOC(=O)Nc1ccc(-c2c(C#N)c3ccc(OC)cc3n2CC)cc1 [Compound 358] | > 2000 |
| C=CC(C)OC(=O)Nc1ccc(-c2c(C#N)c3ccc(OC)cc3n2CC)cc1 (stereo not drawn) [Compound 359] | > 2000 |
| C#CCCOC(=O)Nc1ccc(-c2c(C#N)c3ccc(OC)cc3n2CC)cc1 [Compound 360] | > 2000 |

| SMILES | IC50 [nM] |
| --- | --- |
| CCn1c(-c2ccc(S(=O)(=O)NC3CC3)cc2)c(C#N)c2ccc(OC)cc21 [Compound 363] | 500 to 2000 |
| CCn1c(-c2ccc(NS(C)(=O)=O)cc2)c(C#N)c2ccccc21 [Compound 371] | > 2000 |
| CCOC(=O)Nc1ccc(-c2c(C#N)c3ccccc3n2CC)cc1 [Compound 372] | 500 to 2000 |
| CCn1c(-c2cccc(S(N)(=O)=O)c2)c(C#N)c2ccc(OC)cc21 [Compound 373] | > 2000 |
| CCCNS(=O)(=O)c1ccc(-c2c(C#N)c3ccc(OC)cc3n2CC)cc1 [Compound 374] | > 2000 |
| CCn1c(-c2cccc(N)c2)c(C#N)c2ccc(O)cc21 [Compound 376] | > 2000 |
| CCn1c(-c2ccc(C(=O)N3CCCNCC3)cc2)c(C#N)c2ccc(OC)cc21 [Compound 377] | > 2000 |
| CCn1c(-c2ccc(C(=O)Nc3ccc(Cl)c(Cl)c3)cc2)c(C#N)c2ccc(OC)cc21 [Compound 380] | > 2000 |
| CCn1c(-c2ccc(C(=O)Nc3ccc(C)cc3)cc2)c(C#N)c2ccc(OC)cc21 [Compound 381] | > 2000 |
| CCn1c(-c2ccc(C(=O)Nc3ccc(Cl)cc3)cc2)c(C#N)c2ccc(OC)cc21 [Compound 382] | 500 to 2000 |
| CCn1c(-c2cccc(NC(=O)C(C)C)c2)c(C#N)c2ccc(OC)cc21 [Compound 383] | > 2000 |
| CCn1c(-c2ccc(C(=O)NC(C)C)cc2)c(C#N)c2ccc(OC)cc21 [Compound 385] | 500 to 2000 |
| CCn1c(-c2ccc(C(=O)NC3CC3)cc2)c(C#N)c2ccc(OC)cc21 [Compound 386] | > 2000 |
| CCn1c(-c2ccc(C(=O)N3CCC3)cc2)c(C#N)c2ccc(OC)cc21 [Compound 387] | > 2000 |
| CCn1c(-c2ccc(C(=O)NCCO)cc2)c(C#N)c2ccc(OC)cc21 [Compound 388] | > 2000 |
| CCn1c(-c2ccc(C(=O)NCCCN3CCOCC3)cc2)c(C#N)c2ccc(OC)cc21 [Compound 389] | > 2000 |
| CCn1c(-c2ccc(C(=O)Nc3ccccc3)cc2)c(C#N)c2ccc(OC)cc21 [Compound 390] | > 2000 |
| CCn1c(-c2ccc(C(=O)Nc3ccc(OC)c(OC)c3)cc2)c(C#N)c2ccc(OC)cc21 [Compound 392] | > 2000 |
| CCn1c(-c2ccc(N)cc2)c(C#N)c2cc(Cl)ccc21 [Compound 393] | 500 to 2000 |
| CCn1c(-c2ccc(NS(C)(=O)=O)cc2)c(C#N)c2cc(Cl)ccc21 [Compound 394] | < 500 |
| CCn1c(-c2cccc(NC(=O)NCCCl)c2)c(C#N)c2ccc(OC)cc21 [Compound 395] | 500 to 2000 |
